Our source for the remaining activity values is publication PMC8645336, “Benchmarking a highly selective USP30 inhibitor for enhancement of mitophagy and pexophagy” (Life Science Alliance, 2021).

What all share (assay): biochemical
What all share (parameters): Ubiquigent DUB profiler selectivity panel, remaining enzyme activity as % of control
Holding throughout (settings): read-out: % of control remaining

One assay concerns the target USP9x (Homo sapiens, UniProt Q93008). A digest of the protocol: (§1)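 In YFP-PRKN-overexpressing hTERT-RPE1 cells, 1 h antimycin A plus oligomycin A (1 μM each) with CMPD-39, then Western blot of TOMM20 ubiquitylation. Target engagement: 2 h compound, then 10 min HA-Ub-PA at 37°C, read as USP30 shift. DUB panel (>40 enzymes) screened at 1-100 μM.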
Another assay has as its target T1, USP17 (Homo sapiens, UniProt Q6R6M4).
T1 construct: gene USP17L2
T1 sequence (Q6R6M4 1-530): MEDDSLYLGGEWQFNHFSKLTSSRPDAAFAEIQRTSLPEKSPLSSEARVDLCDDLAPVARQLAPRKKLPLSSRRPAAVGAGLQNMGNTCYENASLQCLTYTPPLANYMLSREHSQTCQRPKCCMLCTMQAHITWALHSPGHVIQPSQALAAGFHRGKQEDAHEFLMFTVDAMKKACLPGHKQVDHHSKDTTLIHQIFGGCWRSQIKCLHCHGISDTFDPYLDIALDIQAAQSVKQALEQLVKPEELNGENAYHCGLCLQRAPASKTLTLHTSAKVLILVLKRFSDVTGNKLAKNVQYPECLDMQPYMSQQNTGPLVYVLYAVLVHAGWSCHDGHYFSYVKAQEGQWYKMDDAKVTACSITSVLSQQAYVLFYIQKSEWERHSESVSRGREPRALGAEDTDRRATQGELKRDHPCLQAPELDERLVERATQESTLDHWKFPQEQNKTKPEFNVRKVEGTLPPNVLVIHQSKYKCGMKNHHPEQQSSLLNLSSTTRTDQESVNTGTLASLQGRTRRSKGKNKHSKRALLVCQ
A digest of the protocol:
as §1

The next assay deals with T2, VCPIP (Homo sapiens, UniProt Q96JH7).
T2 construct: gene VCPIP1
T2 sequence (Q96JH7 1-1222): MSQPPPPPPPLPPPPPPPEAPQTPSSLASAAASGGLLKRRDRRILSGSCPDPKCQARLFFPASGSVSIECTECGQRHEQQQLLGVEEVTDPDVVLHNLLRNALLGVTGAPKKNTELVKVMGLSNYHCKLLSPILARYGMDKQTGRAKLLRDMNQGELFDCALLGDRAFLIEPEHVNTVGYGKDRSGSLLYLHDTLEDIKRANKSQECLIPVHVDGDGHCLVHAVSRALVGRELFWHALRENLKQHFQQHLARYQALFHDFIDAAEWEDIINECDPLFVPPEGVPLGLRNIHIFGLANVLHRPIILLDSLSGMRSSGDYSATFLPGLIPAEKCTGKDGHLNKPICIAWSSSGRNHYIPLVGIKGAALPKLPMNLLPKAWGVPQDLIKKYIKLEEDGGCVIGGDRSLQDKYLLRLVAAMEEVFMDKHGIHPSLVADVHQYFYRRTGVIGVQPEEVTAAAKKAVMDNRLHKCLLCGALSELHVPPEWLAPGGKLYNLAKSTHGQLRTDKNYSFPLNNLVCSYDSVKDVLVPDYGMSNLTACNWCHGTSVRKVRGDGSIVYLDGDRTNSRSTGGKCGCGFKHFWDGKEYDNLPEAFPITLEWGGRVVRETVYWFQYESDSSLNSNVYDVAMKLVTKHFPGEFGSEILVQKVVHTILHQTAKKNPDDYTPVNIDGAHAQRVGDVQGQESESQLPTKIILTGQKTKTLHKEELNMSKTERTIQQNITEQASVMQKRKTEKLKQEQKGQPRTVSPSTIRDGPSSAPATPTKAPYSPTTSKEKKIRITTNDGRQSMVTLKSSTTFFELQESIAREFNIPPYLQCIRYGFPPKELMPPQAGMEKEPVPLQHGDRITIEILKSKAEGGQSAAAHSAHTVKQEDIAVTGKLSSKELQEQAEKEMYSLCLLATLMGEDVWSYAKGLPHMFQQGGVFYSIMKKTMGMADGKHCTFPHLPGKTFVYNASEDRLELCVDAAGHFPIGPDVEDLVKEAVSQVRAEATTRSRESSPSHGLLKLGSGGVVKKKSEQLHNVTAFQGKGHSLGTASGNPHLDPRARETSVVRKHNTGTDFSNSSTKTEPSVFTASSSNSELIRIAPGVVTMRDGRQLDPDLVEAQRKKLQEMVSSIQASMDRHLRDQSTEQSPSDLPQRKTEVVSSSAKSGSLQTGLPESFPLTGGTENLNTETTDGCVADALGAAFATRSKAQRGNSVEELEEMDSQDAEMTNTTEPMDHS
A digest of the protocol: as §1

Sequence of USP9x (Q93008 whole entry): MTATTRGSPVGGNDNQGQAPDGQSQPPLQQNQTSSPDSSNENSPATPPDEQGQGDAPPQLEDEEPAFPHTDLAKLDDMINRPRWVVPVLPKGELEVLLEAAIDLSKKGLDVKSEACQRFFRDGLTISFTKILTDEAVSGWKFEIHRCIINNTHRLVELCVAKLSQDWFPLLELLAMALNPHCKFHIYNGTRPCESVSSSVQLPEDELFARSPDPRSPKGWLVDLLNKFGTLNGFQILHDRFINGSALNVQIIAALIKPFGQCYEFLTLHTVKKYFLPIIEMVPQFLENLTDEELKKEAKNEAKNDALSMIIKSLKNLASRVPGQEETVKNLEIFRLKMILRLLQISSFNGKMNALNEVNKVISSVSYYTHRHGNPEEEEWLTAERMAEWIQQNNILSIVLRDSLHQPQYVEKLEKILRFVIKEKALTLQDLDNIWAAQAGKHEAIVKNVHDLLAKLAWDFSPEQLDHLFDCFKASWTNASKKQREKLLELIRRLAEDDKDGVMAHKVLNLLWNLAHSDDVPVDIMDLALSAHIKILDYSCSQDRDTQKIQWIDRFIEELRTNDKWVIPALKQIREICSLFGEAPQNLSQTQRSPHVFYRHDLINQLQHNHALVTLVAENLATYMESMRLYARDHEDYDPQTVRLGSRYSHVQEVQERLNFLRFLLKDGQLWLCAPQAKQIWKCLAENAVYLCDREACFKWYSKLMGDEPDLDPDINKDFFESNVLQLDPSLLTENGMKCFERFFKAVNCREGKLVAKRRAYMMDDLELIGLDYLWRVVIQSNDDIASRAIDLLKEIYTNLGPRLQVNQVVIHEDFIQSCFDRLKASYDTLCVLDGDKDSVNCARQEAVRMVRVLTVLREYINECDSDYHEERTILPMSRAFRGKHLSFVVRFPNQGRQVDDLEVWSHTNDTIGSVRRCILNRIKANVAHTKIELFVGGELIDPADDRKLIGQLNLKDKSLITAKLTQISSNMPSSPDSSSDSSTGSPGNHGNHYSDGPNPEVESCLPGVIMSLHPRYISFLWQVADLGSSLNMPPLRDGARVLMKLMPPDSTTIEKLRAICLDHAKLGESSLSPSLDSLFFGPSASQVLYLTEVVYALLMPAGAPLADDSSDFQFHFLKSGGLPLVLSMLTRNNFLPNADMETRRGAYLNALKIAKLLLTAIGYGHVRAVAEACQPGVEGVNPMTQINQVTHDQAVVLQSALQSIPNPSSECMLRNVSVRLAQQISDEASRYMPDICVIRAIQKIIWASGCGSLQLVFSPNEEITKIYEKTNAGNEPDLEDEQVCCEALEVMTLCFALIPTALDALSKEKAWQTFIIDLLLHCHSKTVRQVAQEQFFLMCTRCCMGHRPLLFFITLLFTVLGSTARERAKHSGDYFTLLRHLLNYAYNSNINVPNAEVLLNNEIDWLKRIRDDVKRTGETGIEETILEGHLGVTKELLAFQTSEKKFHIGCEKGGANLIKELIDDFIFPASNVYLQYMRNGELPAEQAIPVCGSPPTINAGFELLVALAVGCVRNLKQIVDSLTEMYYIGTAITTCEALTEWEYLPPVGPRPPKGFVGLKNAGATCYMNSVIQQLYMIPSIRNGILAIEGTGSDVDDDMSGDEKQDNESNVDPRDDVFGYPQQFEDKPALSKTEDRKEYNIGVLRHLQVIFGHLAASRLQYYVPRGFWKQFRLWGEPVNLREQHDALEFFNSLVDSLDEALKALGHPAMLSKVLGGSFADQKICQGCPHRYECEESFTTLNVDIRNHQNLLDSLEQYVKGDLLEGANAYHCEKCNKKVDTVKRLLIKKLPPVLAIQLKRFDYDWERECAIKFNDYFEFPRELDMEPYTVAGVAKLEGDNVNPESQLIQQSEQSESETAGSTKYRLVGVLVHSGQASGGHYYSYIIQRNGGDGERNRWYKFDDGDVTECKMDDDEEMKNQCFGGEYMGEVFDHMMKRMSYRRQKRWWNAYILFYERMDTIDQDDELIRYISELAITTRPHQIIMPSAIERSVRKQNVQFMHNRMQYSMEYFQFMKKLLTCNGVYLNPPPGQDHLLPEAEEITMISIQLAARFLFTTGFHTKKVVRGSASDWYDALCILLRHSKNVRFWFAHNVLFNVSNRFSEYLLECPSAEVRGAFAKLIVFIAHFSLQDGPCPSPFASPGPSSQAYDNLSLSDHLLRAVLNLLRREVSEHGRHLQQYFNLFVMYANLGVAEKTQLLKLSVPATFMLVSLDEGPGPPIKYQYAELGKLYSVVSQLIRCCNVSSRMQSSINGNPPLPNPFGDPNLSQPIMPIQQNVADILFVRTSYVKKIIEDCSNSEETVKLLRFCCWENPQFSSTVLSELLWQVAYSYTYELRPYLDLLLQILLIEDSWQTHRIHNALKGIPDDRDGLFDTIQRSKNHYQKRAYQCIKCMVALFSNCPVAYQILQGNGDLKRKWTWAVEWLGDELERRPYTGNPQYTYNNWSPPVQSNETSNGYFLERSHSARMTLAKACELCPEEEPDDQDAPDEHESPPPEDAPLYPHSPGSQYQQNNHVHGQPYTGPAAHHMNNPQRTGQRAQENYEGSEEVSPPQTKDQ

As to `CC(C)(C)NS(=O)(=O)c1ccc(NC(=O)[C@H](Cc2ccccc2)NC(=O)c2ccc(F)cc2)cc1` [compound 39, CMPD-39], on USP9x, the remaining activity at 1 µM amounted to 104%, the remaining activity at 10 µM was 108% and the remaining activity at 100 µM worked out at 98.3%. In addition, at USP17, the remaining activity at 1 µM stood at 110%, the remaining activity at 10 µM worked out at 119% and the remaining activity at 100 µM turned out to be 102%. At VCPIP, the remaining activity at 1 µM came out at 109%, the remaining activity at 10 µM came to 96.5% and the remaining activity at 100 µM came to 95.6%.
